Target: ATP-dependent translocase ABCB1 (Homo sapiens, UniProt P08183)
Test: TP_TRANSPORTER: efflux in S1-B1-20 cells
Format: functional, cell-based

Sequence of ATP-dependent translocase ABCB1 (P08183 whole entry): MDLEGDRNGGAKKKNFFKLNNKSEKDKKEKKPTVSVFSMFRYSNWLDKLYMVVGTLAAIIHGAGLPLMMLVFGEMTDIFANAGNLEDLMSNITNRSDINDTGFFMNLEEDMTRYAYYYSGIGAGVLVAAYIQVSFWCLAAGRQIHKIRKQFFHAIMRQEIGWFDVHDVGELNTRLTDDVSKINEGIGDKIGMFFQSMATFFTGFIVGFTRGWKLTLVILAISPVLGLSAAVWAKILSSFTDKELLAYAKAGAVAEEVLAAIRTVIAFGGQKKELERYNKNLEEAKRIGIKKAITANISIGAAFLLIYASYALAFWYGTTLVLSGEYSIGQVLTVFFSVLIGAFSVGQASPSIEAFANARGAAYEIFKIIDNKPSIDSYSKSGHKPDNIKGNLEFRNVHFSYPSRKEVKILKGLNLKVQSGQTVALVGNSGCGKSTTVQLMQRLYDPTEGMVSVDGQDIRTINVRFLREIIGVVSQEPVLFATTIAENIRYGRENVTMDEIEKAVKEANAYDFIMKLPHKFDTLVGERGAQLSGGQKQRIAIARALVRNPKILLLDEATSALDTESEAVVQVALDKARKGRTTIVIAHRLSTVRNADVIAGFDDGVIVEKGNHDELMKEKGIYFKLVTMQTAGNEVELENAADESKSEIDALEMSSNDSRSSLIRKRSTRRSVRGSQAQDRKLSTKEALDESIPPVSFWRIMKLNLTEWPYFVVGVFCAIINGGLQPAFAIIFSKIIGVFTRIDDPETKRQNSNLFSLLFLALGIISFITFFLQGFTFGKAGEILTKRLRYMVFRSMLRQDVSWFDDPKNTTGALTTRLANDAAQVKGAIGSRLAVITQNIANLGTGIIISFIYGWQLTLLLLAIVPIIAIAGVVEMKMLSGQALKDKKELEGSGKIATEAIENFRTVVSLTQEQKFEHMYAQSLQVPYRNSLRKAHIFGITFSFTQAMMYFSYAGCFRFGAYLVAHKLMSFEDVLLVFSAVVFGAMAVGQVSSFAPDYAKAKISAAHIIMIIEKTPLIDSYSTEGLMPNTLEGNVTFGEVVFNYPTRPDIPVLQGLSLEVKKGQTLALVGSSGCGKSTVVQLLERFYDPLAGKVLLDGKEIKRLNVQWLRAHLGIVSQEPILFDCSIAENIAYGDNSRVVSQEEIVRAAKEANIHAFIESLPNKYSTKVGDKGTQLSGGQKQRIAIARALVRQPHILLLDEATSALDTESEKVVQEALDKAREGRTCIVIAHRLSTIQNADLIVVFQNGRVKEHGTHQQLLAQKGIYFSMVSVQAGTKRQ

C(=N\NC1=NCCN1)/c1c2ccccc2c(/C=N/NC2=NCCN2)c2ccccc12 [BISANTRENE] was tested, and the Activity was “substrate [+]”.

From ChEMBL document CHEMBL2074449, “P-glycoprotein mediates profound resistance to bisantrene” (Oncol Res, 1994)
